Reference: patent US9511061B2, “Incontinence treatment methods” (IXALTIS, priority 2005, dated 2016)

What was measured:
[1] = target: adrenergic receptors α2; experiment: Affinity for adrenergic receptors; assay type: binding
[2] = tested on: anaesthetized female rabbits under conditions of vesical irritation; experiment: Activity of the striated anal sphincter (EMG-SAS) and vesical capacity in anaesthetized female rabbits under vesical irritation by diluted acetic acid; assay type: in vivo, rabbit
Description: The effect of 4-[(2-naphthalenyl)-methoxy]-piperidine (compound A) and of its solvent (NaCl 0.9%) on the electromyographic activity of the striated anal sphincter (EMG-SAS), used as a marker of the activity of the urethral sphincter, and on the vesical capacity (VC) was studied in vivo in anaesthetized female rabbits under conditions of vesical irritation induced by intra-vesical perfusion of diluted acetic acid (Perez Martinez et al., 2006 and Haab et al., 2006). […] 16 New Zealander female white rabbits (2.5-3.5 kg) anaesthetized by intramuscular injection of a mixture of ketamin (25 mg/kg) and sylazin (10 mg/kg), were subject to cystostomy. After laparotomy by median incision, a catheter was introduced at the dome of the bladder and held in place by a purse suture. A multiperforable plug was placed at the end of the catheter, and then the catheter was internalized subcutaneously and attached at the abdomen with a silk ligature. 3 days after cystotomy, cystomanometry was performed on animals anaesthetized with halothane (2-3%). A T-tube was connected at the multiperformable plug, and then connected to a pressure sensor (Letica, PanLab) and to a micro-pump allowing perfusion of the bladder (Razel 99, Scientific Instruments). […] The micturitional profile was continuously recorded by means of a data acquisition system (PowerLab 4/25, PanLab) and the different urodynamic parameters, including vesical capacity (VC), were determined. […] The electric signal, amplified and filtered (bandwidth 1 Hz-5 kHz) was continuously recorded by means of the data acquisition system. EMG-SAS was measured during the phase for filling the bladder, in order to get rid of the parasitics related to perineal movements occurring during micturition.
A catheter was implanted at the vein of the ear in order to allow administration of compound A or of its solvent (NaCl 0.9%) in a volume of 1 mL. […] During a stabilization period (SP) of at least 60 minutes, during which the bladder was perfused, in order to induce regular micturitional cycles, two consecutive doses (1 and 3 mg/kg of compound A or of solvent were administered intravenously, at intervals of 40 minutes. For each of the tested doses, the effects of the compound A and of its solvent on EMG-SAS and on VC were expressed as a percentage of the stabilization period (mean±standard error of mean). During the stabilization period, the parameters obtained in both experimental groups (compound A and solvent) were the same (p>0.05; Kruskal-Wallis test): for EMG-SAS, 1.76±1.04 (n=8) and 1.41±0.59 activity peaks/minute (n=8), for the compound A and its solvent and for VC, respectively, 21.63±4.92 (n=8) and 18.31±2.90 mL (n=8), for the compound A and its solvent respectively. […]

[3] = tested on: human detrusor muscle; experiment: Electrically stimulated human detrusor muscle strips in vitro
Method: The effect of the compound A and of its solvent (Krebs solution) was tested in vitro on bladder strips taken on two male patients within the scope of a radical cystectomy because of an urothelial carcinoma. The strips were mounted in baths with isolated organs, containing a Krebs solution, heated to 37° C. and oxygenated with carbogen (95% O2 and 5% CO2). After a 60 minute stabilization period, the viability of the strips was tested by performing a contraction with 80 mM KCl. After 30 minutes of wash-out and stabilization, the strips were submitted to electric field stimulation, in order to cause neurogenic contractions. The electric stimulation parameters used were the following: frequency: 30 Hz, maximum voltage, pulse duration 0.1 ms, 5 second pulse trains every 100 s. After stabilization of the neurogenic response (about 30 minutes after beginning of the electric stimulation), a range of cumulative concentration-response curves for the compound A was obtained between 0.01-100 μM. It was shown that from 10 μM, the compound A inhibits in a concentration-dependent way, the contractile response of the detrusor muscle strips to electric stimulation with inhibition percentages of 20.1±4.7% at 10 μM, 41.7±5.2% at 30 μM and 80.8±6.8% at 100 μM. Tested under the same conditions, the solvent of the compound A has an inhibiting effect of the order of 10% on the contractions of the detrusor muscle.

[4] = tested on: 5-HT7 receptor in isolated rat bladder; experiment: Potentialization by serotonin of the neurogenic response of isolated rat bladder (5-HT7 antagonistic functional test); conditions: after incubation with 10 μM of compound A; n=6; solvent 52.7±7.3%
Method: The effect of the compound A and of its solvent (Krebs solution) on the potentialization by serotonin of the neurogenic response of isolated rat bladder was studied in vitro. Strips of detrusor muscle taken from Wistar female rats (250-300 grams) were mounted in baths with isolated organs, containing a Krebs solution, heated to 37° C. and oxygenated with carbogen (95% O2 and 5% CO2). After a 60 minute stabilization period, contraction with 80 mM KCl was achieved. After 30 minutes of wash-out and stabilization, the strips were submitted to electric field stimulation, in order to cause neurogenic contractions. The electric stimulation parameters used were the following: frequency: 5 Hz, maximal voltage, pulse duration 0.3 ms, 10 second pulse trains every 60 s. The compound A and its solvent are incubated for 60 minutes, 30 minutes without electric stimulation and 30 minutes during the phase for stabilizing the neurogenic response. After stabilization, a 5-HT cumulative concentration-response curve range was achieved between 0.01-100 μM.

[5] = target: 5-HT1A (Homo sapiens (Human), UniProt P08908); experiment: Binding test on cloned human serotoninergic receptor
Method: (§1) The affinity of the compound A was evaluated in vitro on 8 cloned human serotoninergic receptors by measuring the specific binding of the ligands to the corresponding receptors according to methods adapted from Mulheron (1994), Bryant (1996), Choi (1994), Hope (1996), Mialet (2000), Rees (1994) and Shen (1993).

[6] = target: 5-HT2A (agonist) (Homo sapiens (Human), UniProt P28223); experiment: as above; conditions: 5-HT2A (agonist) site
Method: as §1

[7] = target: 5-HT4e (Homo sapiens (Human), UniProt Q13639); experiment: as above
Method: as §1

[8] = target: 5-HT2B (agonist) (Homo sapiens (Human), UniProt P41595); experiment: as above; conditions: 5-HT2B (agonist) site
Method: as §1

[9] = target: 5-HT7 (Homo sapiens (Human), UniProt P34969); experiment: as above
Method: as §1

[10] = target: 5-HT5A (Homo sapiens (Human), UniProt P47898); experiment: as above
Method: as §1

[11] = target: 5-HT2C (agonist) (Homo sapiens (Human), UniProt P28335); experiment: as above; conditions: 5-HT2C (agonist) site
Method: as §1

[12] = target: 5-HT3 (Homo sapiens (Human), UniProt P46098); experiment: as above
Method: as §1

[13] = tested on: recapture of serotonin as compared with that for dopamine (DA); conditions: selectivity, Scatton 1988; cited from earlier work
[14] = target: muscarinic receptors; experiment: Affinity for muscarinic receptors; assay type: binding
[15] = target: adrenergic receptors β; experiment: Affinity for adrenergic receptors; assay type: binding
[16] = target: adrenergic receptors α1; experiment: Affinity for adrenergic receptors; assay type: binding
[17] = tested on: anaesthetized female rats under vesical irritation conditions; experiment: Vesical capacity in anaesthetized female rats under vesical irritation by diluted acetic acid; assay type: in vivo, rat; conditions: 2 mg/kg i.v., mean±SEM, n=8
Method: After laparotomy, a bursa was formed at the dome of the bladder, and then a catheter was introduced and ligatured at this bursa. A catheter was implanted at the jugular vein in order to allow administration of the compound A or its solvent. Cystomanometry was performed on the animals placed beforehand on a heating plate, in order to maintain their body temperature around 37° C. A 3-way valve was positioned at the end of the vesical catheter and then connected to a pump allowing perfusion of the bladder (Model “11” plus, Harvard Apparatus) and to a pressure sensor (MX 860/866 Novatrans, Medex Medical). Diluted acetic acid (0.3%) held at room temperature was perfused into the bladder (3 mL/h) in order to induce successive micturitions under vesical irritation conditions. The micturitional profile was continuously recorded by means of a data acquisition system (MacLab/8^e, AD Instruments) and the different urodynamic parameters, including vesical capacity (VC) were determined. […] The compound A (2 mg/kg) or its solvent were then injected intravenously in a volume of 1 mL administered within 5 minutes by means of a syringe pump (Model A-99, Fisher Bioblock Scientific). The effects of the compound A and of its solvent on VC were evaluated at times, 20, 40 and 60 minutes after administration and expressed as a percentage of variation of the basal value (mean±standard error of mean). In both experimental groups (compound A and solvent), the basal values of VC were the same (p>0.05; analysis of variance): 0.045±0.005 mL and 0.042±0.006 mL for the solvent (n=11) and the compound A (n=8), respectively. […] (see compound A group (n=8) in FIG. 2).

[18] = tested on: recapture of serotonine (5-HT) as compared with that of norepinephrine (NE); conditions: selectivity, Scatton 1988; cited from earlier work
[19] = target: human 5-HT2C receptor (Homo sapiens (Human), UniProt P28335); experiment: Cellular functional test ([35S]GTPγS binding) on cloned human 5-HT2C receptor in CHO cells; assay type: cell-based
Method: The agonistic and antagonistic activities of the compound A were evaluated in vitro on the human 5-HT2C receptor expressed in Chinese hamster ovarian cells (CHO cells) in a range of concentrations comprised between 1 nM and 100 μM by quantitation of the binding of the specific ligand of the receptor, [^35S]GTPγS, according to a method adapted from Adlersberg (2000) and from Cussac (2002).

[20] = 1 mg/kg intravenously, relative to stabilization period

human 5-HT2C receptor, sequence (P28335 33-458): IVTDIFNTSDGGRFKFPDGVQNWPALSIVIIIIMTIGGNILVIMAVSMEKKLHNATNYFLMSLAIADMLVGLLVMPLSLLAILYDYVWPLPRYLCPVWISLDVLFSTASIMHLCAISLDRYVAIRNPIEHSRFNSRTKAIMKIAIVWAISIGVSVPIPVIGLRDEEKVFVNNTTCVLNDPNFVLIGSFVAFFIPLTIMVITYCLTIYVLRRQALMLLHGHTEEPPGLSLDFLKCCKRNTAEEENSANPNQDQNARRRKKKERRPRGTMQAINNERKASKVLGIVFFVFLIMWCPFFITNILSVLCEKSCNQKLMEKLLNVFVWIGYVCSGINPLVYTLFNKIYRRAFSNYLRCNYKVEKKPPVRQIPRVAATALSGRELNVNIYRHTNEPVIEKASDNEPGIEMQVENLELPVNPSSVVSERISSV
5-HT3, sequence (P46098 24-478): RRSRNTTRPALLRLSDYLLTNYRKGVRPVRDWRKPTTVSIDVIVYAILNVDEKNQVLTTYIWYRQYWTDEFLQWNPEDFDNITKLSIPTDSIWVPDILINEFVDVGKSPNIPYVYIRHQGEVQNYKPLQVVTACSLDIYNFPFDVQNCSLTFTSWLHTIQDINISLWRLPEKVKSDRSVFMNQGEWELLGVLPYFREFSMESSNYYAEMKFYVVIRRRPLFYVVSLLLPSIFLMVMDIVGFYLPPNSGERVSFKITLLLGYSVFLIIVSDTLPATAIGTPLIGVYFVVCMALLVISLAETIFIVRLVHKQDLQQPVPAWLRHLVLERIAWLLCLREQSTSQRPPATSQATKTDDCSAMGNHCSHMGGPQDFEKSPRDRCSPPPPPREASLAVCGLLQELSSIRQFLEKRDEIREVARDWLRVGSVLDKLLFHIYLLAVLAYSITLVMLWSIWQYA
5-HT2A (agonist), sequence (P28223 whole entry): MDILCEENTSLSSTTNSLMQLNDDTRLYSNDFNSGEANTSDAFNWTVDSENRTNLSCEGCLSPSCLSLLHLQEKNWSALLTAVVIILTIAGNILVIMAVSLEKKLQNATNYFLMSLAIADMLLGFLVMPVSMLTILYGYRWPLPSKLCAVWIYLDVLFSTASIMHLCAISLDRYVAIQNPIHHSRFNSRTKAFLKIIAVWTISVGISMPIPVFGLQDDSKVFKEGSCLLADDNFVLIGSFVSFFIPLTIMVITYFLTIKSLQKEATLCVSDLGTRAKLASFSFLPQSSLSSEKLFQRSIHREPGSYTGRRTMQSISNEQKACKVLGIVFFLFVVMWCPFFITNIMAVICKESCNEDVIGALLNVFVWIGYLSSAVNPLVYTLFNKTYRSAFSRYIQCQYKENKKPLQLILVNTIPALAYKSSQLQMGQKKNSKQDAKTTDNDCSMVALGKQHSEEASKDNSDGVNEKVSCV
5-HT2C (agonist), sequence (P28335 33-458): as the sequence (P28335 33-458) above
5-HT2B (agonist), sequence (P41595 whole entry): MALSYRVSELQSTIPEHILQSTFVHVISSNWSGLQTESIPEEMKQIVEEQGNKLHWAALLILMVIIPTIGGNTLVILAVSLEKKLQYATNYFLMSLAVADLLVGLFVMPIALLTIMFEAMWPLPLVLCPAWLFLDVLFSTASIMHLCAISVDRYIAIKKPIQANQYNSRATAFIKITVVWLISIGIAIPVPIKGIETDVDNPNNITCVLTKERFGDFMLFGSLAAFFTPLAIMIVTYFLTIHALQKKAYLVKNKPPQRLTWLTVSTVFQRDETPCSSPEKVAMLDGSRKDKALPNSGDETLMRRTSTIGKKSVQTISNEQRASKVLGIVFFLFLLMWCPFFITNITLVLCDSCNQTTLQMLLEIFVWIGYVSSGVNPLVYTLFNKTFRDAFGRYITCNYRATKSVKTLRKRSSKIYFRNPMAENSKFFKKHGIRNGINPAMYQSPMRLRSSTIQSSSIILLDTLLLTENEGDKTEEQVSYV
5-HT4e, sequence (Q13639 other isoform, or with tags, fused parts or gaps): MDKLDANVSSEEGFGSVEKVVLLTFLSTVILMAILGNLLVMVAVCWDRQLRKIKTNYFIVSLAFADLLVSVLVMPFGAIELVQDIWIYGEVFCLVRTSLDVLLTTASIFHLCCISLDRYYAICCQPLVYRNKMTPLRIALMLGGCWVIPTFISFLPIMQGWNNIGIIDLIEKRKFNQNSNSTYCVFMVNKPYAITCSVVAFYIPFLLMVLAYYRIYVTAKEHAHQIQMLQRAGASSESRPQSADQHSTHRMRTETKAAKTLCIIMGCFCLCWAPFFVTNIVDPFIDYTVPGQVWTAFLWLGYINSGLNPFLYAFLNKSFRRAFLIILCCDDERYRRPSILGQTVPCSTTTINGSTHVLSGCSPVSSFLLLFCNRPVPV
5-HT7, sequence (P34969 whole entry): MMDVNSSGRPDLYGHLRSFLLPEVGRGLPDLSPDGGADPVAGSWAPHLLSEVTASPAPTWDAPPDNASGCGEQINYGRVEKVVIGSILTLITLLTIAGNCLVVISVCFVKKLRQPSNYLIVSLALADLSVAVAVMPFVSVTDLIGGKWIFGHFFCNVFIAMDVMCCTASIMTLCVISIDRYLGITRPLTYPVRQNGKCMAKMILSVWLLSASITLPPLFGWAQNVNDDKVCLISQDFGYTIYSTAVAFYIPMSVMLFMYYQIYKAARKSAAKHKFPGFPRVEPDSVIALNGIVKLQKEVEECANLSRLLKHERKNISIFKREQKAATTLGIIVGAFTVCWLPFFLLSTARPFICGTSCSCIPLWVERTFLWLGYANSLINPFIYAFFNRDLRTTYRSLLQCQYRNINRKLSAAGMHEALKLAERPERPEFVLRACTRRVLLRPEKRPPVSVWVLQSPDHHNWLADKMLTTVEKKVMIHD
5-HT5A, sequence (P47898 whole entry): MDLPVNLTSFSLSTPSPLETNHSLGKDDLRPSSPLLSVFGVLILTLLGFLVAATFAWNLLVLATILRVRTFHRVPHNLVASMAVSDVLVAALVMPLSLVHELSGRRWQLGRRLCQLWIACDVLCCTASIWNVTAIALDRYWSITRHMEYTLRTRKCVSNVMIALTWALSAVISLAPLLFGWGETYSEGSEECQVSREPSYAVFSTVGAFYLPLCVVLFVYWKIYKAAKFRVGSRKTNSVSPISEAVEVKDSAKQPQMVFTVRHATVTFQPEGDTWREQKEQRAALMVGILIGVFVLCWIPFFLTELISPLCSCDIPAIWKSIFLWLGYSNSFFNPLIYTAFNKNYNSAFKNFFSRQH
5-HT1A, sequence (P08908 whole entry): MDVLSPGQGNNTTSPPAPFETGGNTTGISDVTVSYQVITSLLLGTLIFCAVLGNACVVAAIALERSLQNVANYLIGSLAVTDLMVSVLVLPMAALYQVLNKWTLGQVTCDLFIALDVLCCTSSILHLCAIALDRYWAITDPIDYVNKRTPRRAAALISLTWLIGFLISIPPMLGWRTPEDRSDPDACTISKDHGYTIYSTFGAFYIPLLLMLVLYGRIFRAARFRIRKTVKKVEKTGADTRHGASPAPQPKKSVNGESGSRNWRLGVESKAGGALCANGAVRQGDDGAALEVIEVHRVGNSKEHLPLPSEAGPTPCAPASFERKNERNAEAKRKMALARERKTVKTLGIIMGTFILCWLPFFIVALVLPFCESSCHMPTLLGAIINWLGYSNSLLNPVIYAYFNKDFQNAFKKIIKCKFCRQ

In the case of `c1ccc2cc(COC3CCNCC3)ccc2c1` [Compound A, 4-[(2-naphthalenyl)-methoxy]-piperidine], the IC50 [1] is reported as 70000 nM, the “effect on EMG-SAS (electromyographic activity of the striated anal sphincter)” value [2, 20] is reported as “did not induce any significant effect” and the “effect on vesical capacity (VC)” value [2, 20] is reported as “did not induce any significant effect”. The “increase in EMG-SAS, percentage of the stabilization period” value ([2]; 3 mg/kg intravenously, mean±SEM, n=7, p=0.018) was 1,521.90±966.61%, the “increase in VC, percentage of the stabilization period” value ([2]; 3 mg/kg intravenously, mean±SEM, n=8) was 123.29±11.62% and the “inhibition of the contractile response of detrusor muscle strips to electric stimulation” value (from here on “inhibition … to electric stimulation”) ([3]; 10 μM) was 20.1±4.7%. The “inhibition … to electric stimulation” value ([3]; 30 μM) was 41.7±5.2%, the “inhibition … to electric stimulation” value ([3]; 100 μM) was 80.8±6.8% and the “maximum response of 5-HT, % of the reference contraction induced by 80 mM KCl” value [4] was 18.7±3.2%. For the same compound, the “inhibition of the specific binding of the control” value [5] was 14%, the IC50 [6] was 1000 nM and the Ki ([6]; Cheng Prusoff) was 620 nM. It also gave an IC50 [7] of 4700 nM, a Ki ([7]; Cheng Prusoff) of 1600 nM and an IC50 [8] of 1000 nM. For the same compound, the Ki ([8]; Cheng Prusoff) was 980 nM, the IC50 [9] was 7200 nM and the Ki ([9]; Cheng Prusoff) was 2600 nM. For the same compound, the “inhibition of the specific binding of the control” value [10] was 1%, the IC50 [11] was 250 nM and the Ki ([11]; Cheng Prusoff) was 200 nM. The IC50 [12] was 1400 nM, the Ki ([12]; Cheng Prusoff) was 720 nM and the “IC50 DA/HT ratio” value [13] was 188. The IC50 [14] was 99000 nM, the IC50 [15] was 100000 nM and the IC50 [16] was 40000 nM. The “increase in VC, percentage of variation of the basal value” ([17]; 20 minutes after administration) was 46.25±16.40%, the “increase in VC, percentage of variation of the basal value” ([17]; 40 minutes after administration) was 44.61±17.51% and the “increase in VC, percentage of variation of the basal value” ([17]; 60 minutes after administration) was 60.34±17.8%. For the same compound, the “IC50 NE/HT ratio” value [18] was 89, the antagonistic activity ([19]; 10 μM) was 18% and the agonistic activity ([19]; 3.10^−5 M (plateau)) was 44%. For the same compound, the agonistic activity ([19]; 10^−4 M (plateau)) was 42%, the IC50 ([19]; agonistic activity, [35S]GTPγS, CHO cells, read-out: IC50 (partial agonist for the 5-HT2C receptor)) was 1500 nM and the antagonistic activity ([19]; between 1 nM and 1 μM) was “Without any significant antagonistic activity”.
